Laboratory results published in patent US20260183396A1, “CXCR3 OVEREXPRESSION IN CAR-NK CELLS PRIMES MIGRATION/HOMING INTO THE TUMOR MICROENVIRONMENT” (DANA-FARBER CANCER INSTITUTE, INC., priority 2022, published 2026).

Legend:
CXCL10 = CXCL10 release from MPM PDOTS/explants; assay type: cell-based, human; conditions: MPM PDOTS, specific samples
Description: Patient-derived organotypic tumor spheroids (PDOTS). PDOTS were generated as previously described (Jenkins et al., Cancer Discov. 8:196-215 (2018); Aref et al., Lab Chip 18:3129-3143 (2018)). Briefly, fresh tumor specimens were minced in a 15 mL falcon tube in prewarmed to 37° C. full media (DMEM from Thermo Fisher Scientific+10% FBS)+100 U/mL collagenase type IV (Life Technologies) and 50 μg/mL dNase I (Roche) for approximately 20 minutes using sterile scissors and pipetting. Dissociated material was strained over 100-μm filter and 40-μm filters to generate S1 (>100 μm), S2 (40-100 μm), and S3 (<40 μm) spheroid fractions, which were subsequently maintained in ultralow-attachment (ULA) tissue culture plates (Corning). […] S2 fractions were used for ex vivo culture by resuspending them in type I rat tail collagen (Corning) at a concentration of 2.8 mg/mL prior to loading into the center gel region of the 3-D microfluidic culture device (AIM Biotech) and incubation for 40 minutes at 37° C. in humidity chambers to allow for polymerization. Collagen hydrogels containing PDOTS were hydrated with media with or without indicated treatments. TAK-676 was provided by Takeda and diluted in dH20. Recombinant human interferon beta (100 ng/ml; R&D Systems) was used as a positive control downstream of STING for STAT1 pathway activation. […]

MPM cell lines = assay: CellTiter-Glo viability in MPM cell lines; assay type: cell-based, human; conditions: cultured in vitro
Description: CellTiter-Glo luminescent cell viability assay. Cell viability was assessed using the CellTiter-Glo Luminescent Cell Viability assay (Promega, G7571) according to manufacturer's instructions. […] All conditions were tested in triplicate and plates were read on a Tecan Infinite Mplex Microplate Reader.

Nc1ncnc2c1ncn2[C@@H]1O[C@@H]2COP(=O)([S-])O[C@@H]3[C@H](O)[C@@H](COP([O-])(=S)O[C@H]2[C@H]1O)O[C@H]3n1cnc2c(N)ncnc21.[Na+].[Na+] (some centres unmarked) [ADU-S100]
CXCL10 release (CXCL10): induced CXCL10 release
cytotoxicity in MPM cell lines (MPM cell lines): did not cause cytotoxicity
